Entries after “also recorded” stand apart in the source; their conditions may differ. Read-outs that look alike come from different tables or passages of the source.
Experiments:
[1] = tested on: Tetranychus urticae; experiment: Leaf disc track-sprayer bioassay against red spider mite; format: in vivo; conditions: for Concentration effect ca LD25 3DAA / Concentration effect ca LD50 3DAA: T. urticae; for activity against T. urticae when applied alone: range-finding assay
Protocol: Test arenas consisted of excised leaf discs of the host plant Phaseolus vulgaris infested with the target organism, Tetranychus urticae. A track sprayer was used to spray the test solutions at an application volume of 200 L/ha. Assessment of mortality (survival), any other sub lethal effects and phytotoxicity were carried out at 24 hours and 72 hours post application (3DAA).

[2] = tested on: Myzus persicae; conditions: for Concentration effect ca LD25 3DAA: M. persicae; for aphicidal activity against M. persicae when applied alone: range-finding assay; for pesticidal activity against M. persicae, product alone in mixture study: alone at rate taken as ca. LD25 (BUGOIL 10 mL/L, imidacloprid 0.1, indoxacarb 100, spinosad 1 g (a.i.)/ha)
Protocol: Test arenas consisted of excised leaf discs of the host plant infested with the target organism.
Test arenas consisted of excised leaf discs of the host plant Brassica rapa chinensis infested with the target organism, Myzus persicae. A track sprayer was used to spray the test solutions at an application volume of 200 L/ha. Assessment of mortality (survival), any other sub lethal effects and phytotoxicity were carried out at 24 hours and 72 hours post application (3DAA).

[3] = tested on: Spodoptera litura; experiment: Field study, cutworm on eggplant; format: in vivo; conditions: 7 DAA
Protocol: (§1) For the field experiments described in Examples 14-16, the numbers of target organisms on host plants were assessed before treatment and after treatment.
(§2) Field studies as described below were carried out to determine the efficacy of BUGOIL®, lambda cyhalothrin, imidacloprid, and abamectin, alone and in mixtures with BUGOIL®, for control of the whitefly Bemisia tabaci, the leafhopper Empoasca biggutula, the aphid Aphis gosspyii, the shoot/fruit borer Leucinodes orbonalis and the cutworm Spodoptera litura on the eggplant cultivar “Casino” (Solanum melongena cv Casino). In the following studies, the dose (N) is the label dose for each product, expressed in concentration (grams active ingredient) per liter of spray mixture (a.i.)/l).
Lambda cyhalothrin is formulated as Karate® (KARATE® with Zeon Technology, Syngenta Phillipines, Inc., Batch No. JAK8,18179, Production Date Nov. 11, 2008, Phillipines Department of Agriculture, Fertilizer and Pesticides Authority (FPA) Reg. No. 011-204-0396), where the dose prior to dilution=N=label dose=0.8 g (a.i.)/l (rated adapted to lepidopterian and leafhopper pests).
(§3) Imidacloprid is formulated as CLIMAX® (CLIMAX® 200 SL, Bayer CropScience, Inc., Batch No. 81001025, Production Date Feb. 22, 2005, FPA Reg. No. 284-240-0761 where the dose prior to dilution=N=label dose=0.15 g (a.i.)/l.
(§4) Abamectin is formulated as AGRI-MEK® (AGRI-MEK® 1.8 EC, Syngenta Phillipines, Inc., FPA Reg. No. 011-234-0791), where the dose prior to dilution=N=label dose=0.018 g (a.i.)/l.

[4] = tested on: Trialeurodes sp.; experiment: Field study, adult whitefly on zucchini; format: in vivo; conditions: FIG. 12, imidacloprid alone at N/2 dilution
Protocol: as §1
Field studies as described below were carried out to determine the efficacy of BUGOIL® alone, lambda cyhalothrin alone, imidacloprid alone, abamectin alone, and mixtures of BUGOIL® with lambda cyhalothrin, imidacloprid, or abamectin, for control of adult whiteflies of different whitefly species, on zucchini and cucumber. In the following studies, the dose (N) is the label dose for each product, expressed in concentration (grams active ingredient) per liter of spray mixture (a.i.)/1).

[5] = tested on: Empoasca biggutula; experiment: Field study, leafhopper on eggplant; format: in vivo
Protocol: as §1, §2, §3, §4

[6] = tested on: Bemisia tabaci; experiment: Field study, adult whitefly on eggplant; format: in vivo; conditions: over a 14 day test period, product alone
Protocol: as §1, §2, §3

[7] = tested on: sucking insect pests (whitefly, leafhoppers and aphids); experiment: Field study, sucking insect pests on eggplant; format: in vivo; conditions: abamectin as AGRI-MEK 1.8 EC, mixtures at reduced rates, sucking insect and lepidopteran pests
Protocol: as §1, §2

[8] = alone at recommended application rate (N)
[9] = 72 hours, *not necessarily at the LD25 level, little or no response to the dose range
[10] = 72 hours, *not necessarily at the LD50 level, little or no response to the dose range

Row | Compound | Concentration effect ca LD25 3DAA ([1]; 72 hours after application) [g a.i./ha] | Concentration effect ca LD50 3DAA ([1]; 72 hours after application) [g a.i./ha] | activity against T. urticae when applied alone ([1]; 72 hours) | Concentration effect ca LD25 3DAA ([2]; 72 hours after application) [g a.i./ha] | aphicidal activity against M. persicae when applied alone ([2]; 72 hours) | control of cutworm, S litura [3, 8] | Concentration effect ca LD25 3DAA [1, 9] [g a.i./ha] | Concentration effect ca LD50 3DAA [1, 10] [g a.i./ha] | Concentration effect ca LD25 3DAA [2, 9] [g a.i./ha] | pesticidal activity against M. persicae, product alone in mixture study ([2]; 72 hours) | also measured
1 | CC1(C)[C@H](C(=O)O[C@H](C#N)c2cccc(Oc3ccccc3)c2)[C@@H]1/C=C(\Cl)C(F)(F)F (racemic) [lambda-cyhalothrin, Lambda-cyhalothrin] | ~0.05 | ~0.1 | active | ~0.01 | high aphicidal activity | around 60% | – | – | – | – | pesticidal activity against T. urticae in mixture study ([1]; FIG. 4B, BUGOIL at ca. LD25 (5 mL/L), lambda-cyhalothrin at ca. LD25 (0.05 g (a.i.)/ha), mixtures Treatments 3, 4, 5, 7, 8, 72 hours): showed pesticidal activity
2 | O=[N+]([O-])NC1=NCCN1Cc1ccc(Cl)nc1 [imidacloprid, (2E)-1-[(6-chloro-3-pyridinyl)methyl]-N-nitro-2-imidazolidinimine] | – | – | minimal activity | ~0.1 | active | around 60% | ~100 | ~400 | – | – | mortality rates ([2]; range finder assay, concentrations of 1 g a.i./ha and above): greater than 90%; control of adult whiteflies [4]: 30-40%; control of leafhoppers ([5]; 1 HAA, imidacloprid alone at half the normal rate (½ N)): 37%; control of adult whitefly, B. tabaci [6]: ≤ 50%
3 | COC(=O)N(C(=O)N1CO[C@@]2(C(=O)OC)Cc3cc(Cl)ccc3C2=N1)c1ccc(OC(F)(F)F)cc1 [indoxacarb, methyl (4aS)-7-chloro-2,5-dihydro-2-[[(methoxycarbonyl)[4-(trifluoromethoxy)phenyl]amino]carbonyl] indeno[1,2-e][1,3,4]oxadiazine-4a(3H)-carboxylate] | – | – | minimal activity; also recorded: not shown to be active | – | little aphicidal activity | – | ~100 | ~400 | ~100 | did not have measurable pesticidal activity | –
4 | Abamectin | ~0.025 | ~0.040 | active | ~5 | active | – | – | – | – | – | Observed mean % mortality of T urticae ([1]; 0.25 g abamectin/L alone): 10%; Concentration effect ca LD50 3DAA ([1]; 72 hours after application, listed as Abamectin (Vertan)): ~0.04 g a.i./ha; mortality rate ([2]; applied as VERTAN at LD25 (5 g (a.i.)/ha) or above, 72 hours): ~100%; control of leafhopper E. biggutula ([5]; 3 days after application 1, BUGOIL alone at 5 mL/L): 78%; control of leafhopper E. biggutula ([5]; 3 days after application 2, BUGOIL alone at 5 mL/L): 66%; control of leafhopper E. biggutula ([5]; 3 days after application 3, BUGOIL alone at 5 mL/L): 49%; control of leafhopper E biggutula ([5]; single application, 3 days after application): around 80%; control of cutworm, S litura ([3]; abamectin alone): 70%; control of eggplant pests [7]: good effects
5 | Spinosad | ~10 | ~50 | a dose response to spinosad was observed | – | variable aphicidal activity | – | – | – | ~10 | no measurable pesticidal activity | Observed mean % mortality of T urticae ([1]; 10 g spinosad/L alone): 8%

From patent US20110318272A1, “PESTICIDAL MIXTURES GIVING S[…]” (priority 2010, published 2011)
